Experiments:
[1] = tested on: human eosinophils; assay: Histamine-induced shape change assay (Gated Autofluorescence Forward Scatter assay, GAFS) in human eosinophils; format: cell-based; settings: Eosinophil, stimulated with 300 nM histamine
Procedure: Histamine-induced Shape Change Assay (Gated Autofluorescence Forward Scatter Assay, GAFS) in Human Eosinophils
In this assay the shape change induced by histamine in human eosinophils is determined by flow cytometry, detected as an increase in the size of the cells (forward scatter, FSC).
Polymorphonuclear leucocytes (PMNL, fraction containing neutrophils and eosinophils) were prepared from whole blood of human healthy volunteers. Briefly, erythrocytes were separated by sedimentation in 1.2% Dextran (SIGMA), and the leucocyte-rich fraction (PMNL) was isolated from the top layer by centrifugation at 450 g for 20 min in the presence of Ficoll-Paque® (Biochrom). PMNLs were resuspended in PBS buffer at a concentration of 1.1×10^6 cells/ml/tube and were pretreated with different concentrations of test compounds (dissolved in PBS) for 30 min at 37° C. and then stimulated with 300 nM histamine (Fluka) for 5 min. Finally, paraformaldehyde (1% final concentration in PBS) was added to terminate the reaction and maintain cell shape. Cell shape change was analyzed by flow cytometry (FACS Calibur, BD Biosystems). Eosinophils in PMNL were gated based on their higher autofluorescence relative to that of neutrophils (fluorescence channel FL2). Cell shape change was monitored in forward scatter signals (FSC). Results are expressed as percentage inhibition of shape change induced by histamine for each concentration of test compound.

[2] = biological target: T1, human histamine H4 receptor (Homo sapiens, UniProt Q9H3N8); assay: Competitive binding assay of [3H]-histamine to the human histamine H4 receptor; settings: 10 nM [3H]-histamine, CHO membrane extract; for inhibition at 1 µM: at a concentration of 1 μM
T1 construct: purchased Euroscreen/Perkin-Elmer
Procedure: Competitive Binding Assay of [^3H]-histamine to the Human Histamine H4 Receptor
To perform the binding assay, membrane extracts prepared from a stable CHO recombinant cell line expressing the human histamine H4 receptor (Euroscreen/Perkin-Elmer) were used.
The compounds to be tested were incubated at the desired concentration in duplicate with 10 nM [^3H]-histamine and 15 μg membrane extract in a total volume of 250 μL of 50 mM Tris-HCl, pH 7.4, 1.25 mM EDTA for 60 minutes at 25° C. Non-specific binding was defined in the presence of 100 μM of unlabelled histamine. The reaction was stopped by filtration using a vacuum collector (Multiscreen Millipore) in 96-well plates (MultiScreen HTS Millipore) that had been previously soaked in 0.5% polyethylenimine for 2 hours at 0° C. The plates were subsequently washed with 50 mM Tris (pH 7.4), 1.25 mM EDTA at 0° C., and the filters were dried for 1 hour at 50-60° C., before adding the scintillation liquid in order to determine bound radioactivity by means of a betaplate scintillation counter.

Row | inhibition at 10 µM [2] | inhibition at 1 µM [2] | Compound | inhibition at 1 µM [1]
1 | > 50% |  | CNC1CN(c2cc(N)nc(C3CC3)n2)C1 [Example 5, 2-Cyclopropyl-6-(3-(methylamino)azetidin-1-yl)pyrimidin-4-amine] | 
2 | > 50% |  | CNC1CN(c2cc(N)nc(CC(C)C)n2)C1 [Example 4, 2-Isobutyl-6-(3-(methylamino)azetidin-1-yl)pyrimidin-4-amine] | > 50%
3 |  | > 50% | CN[C@@H]1CCN(c2cc(N)nc(C(C)C)n2)C1 [Example 12, 2-Isopropyl-6-((3R)-3-(methylamino)pyrrolidin-1-yl)pyrimidin-4-amine] | > 50%
4 | > 50% |  | CNC1CN(c2cc(N)nc(CC(C)(C)C)n2)C1 [Example 21, 2-(2,2-Dimethylpropyl)-6-(3-(methylamino)azetidin-1-yl)pyrimidin-4-amine] | > 50%
5 | > 50% |  | CC(C)Cc1nc(N)cc(N2CC(N)C2)n1 [Example 14, 6-(3-Aminoazetidin-1-yl)-2-isobutylpyrimidin-4-amine] | 
6 | > 50% |  | CN[C@@H]1CCN(c2cc(N)nc(CC(C)C)n2)C1 [Example 1, 2-Isobutyl-6-((3R)-3-(methylamino)pyrrolidin-1-yl)pyrimidin-4-amine] | > 50%
7 | > 50% |  | CNC1CN(c2cc(N)nc(Cc3ccc(F)cc3)n2)C1 [Example 3, 2-(4-Fluorobenzyl)-6-(3-(methylamino)azetidin-1-yl)pyrimidin-4-amine] | > 50%
8 | > 50% |  | CNC1CN(c2cc(N)nc(C(C)(C)C)n2)C1 [Example 6, 2-tert-Butyl-6-(3-(methylamino)azetidin-1-yl)pyrimidin-4-amine] | 
9 | > 50% |  | CC(C)Cc1nc(N)cc(N2CC[C@@H](N)C2)n1 [Example 16, 6-((3R)-3-aminopyrrolidin-1-yl)-2-isobutylpyrimidin-4-amine] | 
10 | > 50% |  | CNC1CN(c2cc(N)nc(C(C)C)n2)C1 [Example 7, 2-Isopropyl-6-(3-(methylamino)azetidin-1-yl)pyrimidin-4-amine] | 
11 | > 50% |  | CNC1(C)CN(c2cc(N)nc(CC(C)C)n2)C1 [Example 15, 2-Isobutyl-6-(3-methyl-3-(methylamino)azetidin-1-yl)pyrimidin-4-amine] | > 50%
12 | > 50% |  | CN[C@@H]1CCN(c2cc(N)nc(CC(C)(C)C)n2)C1 [Example 22, 2-(2,2-Dimethylpropyl)-6-((3R)-3-(methylamino)pyrrolidin-1-yl)pyrimidin-4-amine] | > 50%

Further lines, the molecule ahead of its results:

Row | Compound | inhibition at 10 µM [2] | inhibition at 1 µM [2] | inhibition at 1 µM [1]
13 | CNC1CN(c2cc(N)nc(C3CCCC3)n2)C1 [Example 19, 2-Cyclopentyl-6-(3-(methylamino)azetidin-1-yl)pyrimidin-4-amine] | > 50% |  | > 50%
14 | CN[C@@H]1CCN(c2cc(N)nc(COc3ccccc3)n2)C1 [Example 13, 6-((3R)-3-(methylamino)pyrrolidin-1-yl)-2-(phenoxymethyl)pyrimidin-4-amine] | > 50% |  | 
15 | CN[C@@H]1CCN(c2cc(N)nc(C(C)(C)C)n2)C1 [Example 11, 2-tert-Butyl-6-((3R)-3-(methylamino)pyrrolidin-1-yl)pyrimidin-4-amine] |  | > 50% | > 50%
16 | CN[C@@H]1CCN(c2cc(N)nc(C3CCCC3)n2)C1 [Example 20, 2-Cyclopentyl-6-((3R)-3-(methylamino)pyrrolidin-1-yl)pyrimidin-4-amine] | > 50% |  | > 50%
17 | CN[C@@H]1CCN(c2cc(N)nc(C3CC3)n2)C1 [Example 10, 2-Cyclopropyl-6-((3R)-3-(methylamino)pyrrolidin-1-yl)pyrimidin-4-amine] |  | > 50% | 
18 | CNC1CN(c2cc(N)nc(COc3ccccc3)n2)C1 [Example 9, 6-(3-(methylamino)azetidin-1-yl)-2-(phenoxymethyl)pyrimidin-4-amine] | > 50% |  | 
19 | CN[C@@H]1CCN(c2cc(N)nc(CCC3CCCC3)n2)C1 [Example 23, 2-(2-Cyclopentylethyl)-6-((3R)-3-(methylamino)pyrrolidin-1-yl)pyrimidin-4-amine] | > 50% |  | 
20 | CN[C@@H]1CCN(c2cc(N)nc(CC3CCCCC3)n2)C1 [Example 2, 2-Cyclohexylmethyl-6-((3R)-3-(methylamino)pyrrolidin-1-yl)pyrimidin-4-amine] | > 50% |  | > 50%
21 | CN[C@@H]1CCN(c2cc(N)nc(C3CCC3)n2)C1 [Example 18, 2-Cyclobutyl-6-((3R)-3-(methylamino)pyrrolidin-1-yl)pyrimidin-4-amine] | > 50% |  | > 50%
22 | CNC1CN(c2cc(N)nc(C3CCC3)n2)C1 [Example 17, 2-Cyclobutyl-6-(3-(methylamino)azetidin-1-yl)pyrimidin-4-amine] | > 50% |  | > 50%
